One test deals with 293T cells. The test is described as follows: Cellular phagocytosis of DiD-loaded lipid vesicles (nano-drugs) by 293T cells (Example II-51, Table II-29). The following applies: 293T cells pretreated 4 h, DiD lipid vesicles 2 h, n=3, untreated control 226.46 ± 1.26. It is filed as cell-based.
Another test has as its system Hela cells. As to the kind of experiment: Cell membrane fluidity (Laurdan fluorescence recovery) in Hela cells. Format: cell-based.

Regarding `CCCCCC(=O)O` [Hexanoic acid], the Fluorescence intensity with 293T cells (2 nM) is given as 131.26 ± 11.25; in the test on 293T cells (5 nM), 114.00 ± 14.2; with 293T cells (10 nM), 94.34 ± 4.25; in the test with 293T cells (50 nM) it was 96.63 ± 6.32; with 293T cells (100 nM) it was 30.71 ± 1.25; in the test with 293T cells (1 uM) it was 102.07 ± 12.2. Besides, the Fluorescence intensity worked out at 125.10 ± 12.55 with 293T cells (10 uM), 288.42 ± 8.32 with 293T cells (50 uM) and 325.58 ± 15.26 in the test on 293T cells (100 uM).
`CCCCCC/C=C\CCCCCCCC(=O)OC(C)C(N)C(=O)O` (stereo not drawn) [Threonine-cis-9-hexadecanoic acid]: the Fluorescence intensity is reported as 142.94 in the test on 293T cells (2 nM); 67.71 ± 5.67 in the test with 293T cells (5 nM); 64.00 ± 4.06 with 293T cells (10 nM); 74.71 ± 5.36 in the test on 293T cells (50 nM); 56.71 ± 6.74 in the test on 293T cells (100 nM); 153.25 ± 13.25 in the test on 293T cells (1 uM). Moreover, the Fluorescence intensity in the test with 293T cells (10 uM) worked out at 126.64 ± 11.02; in the test with 293T cells (50 uM), 37.23 ± 2.35; in the test with 293T cells (100 uM), 61.12 ± 5.21.
Regarding `C/C=C/C(=O)O` [Crotonic acid], the Fluorescence intensity stood at 157.30 ± 20.43 in the test on 293T cells (2 nM); 159.29 ± 0.43 in the test with 293T cells (5 nM); 94.34 ± 0.43 with 293T cells (10 nM); 51.34 ± 0.43 in the test on 293T cells (50 nM); 59.65 ± 1.57 in the test with 293T cells (100 nM); 458.20 ± 20.41 in the test with 293T cells (1 uM). For the same compound, the values for the Fluorescence intensity with 293T cells (10 uM), with 293T cells (50 uM) and with 293T cells (100 uM) were 326.69 ± 20.40, 200.73 ± 10.31 and 218.13 ± 8.22, respectively.
On to `CCC=CCC=CCC=CCCCCCCCC(=O)OCC1OC(O)C(O)C(O)C1O` (centres unmarked) [Glucose-linolenic acid], for which the “Fluorescence recovery rate %” value in the test with Hela cells (2 nM, 20 s) is reported as 63.78%; with Hela cells (2 nM, 40 s) it was 64.18%; with Hela cells (2 nM, 60 s), 65.22%; with Hela cells (2 nM, 80 s) it was 65.16%; in the test on Hela cells (5 nM, 20 s), 64.35%; in the test on Hela cells (5 nM, 40 s), 64.83%. For the same compound, the “Fluorescence recovery rate %” value is 65.17% in the test on Hela cells (5 nM, 60 s); 66.59% in the test on Hela cells (5 nM, 80 s); 64.76% in the test with Hela cells (10 nM, 20 s); 64.87% in the test on Hela cells (10 nM, 40 s); 65.11% in the test with Hela cells (10 nM, 60 s); 66.83% in the test with Hela cells (10 nM, 80 s). In addition, the “Fluorescence recovery rate %” value in the test on Hela cells (50 nM, 20 s) was determined as 63.24%; in the test on Hela cells (50 nM, 40 s), 64.10%; in the test on Hela cells (50 nM, 60 s), 64.54%; in the test with Hela cells (50 nM, 80 s), 65.23%; in the test with Hela cells (50 μM, 20 s), 63.11%; in the test with Hela cells (50 μM, 40 s), 70.49%. Besides, the “Fluorescence recovery rate %” value with Hela cells (50 μM, 60 s) turned out to be 74.88%; with Hela cells (50 μM, 80 s) it was 79.24%; with Hela cells (100 μM, 20 s) it was 65.93%; in the test with Hela cells (100 μM, 40 s), 69.87%; in the test on Hela cells (100 μM, 60 s), 75.03%; with Hela cells (100 μM, 80 s), 80.83%.
Take `CCCCCCCC/C=C\CCCCCCCC(=O)OCCOCC(OCCO)C1OCC(OCCO)C1OCCO` (centres unmarked) [Tween-80]: the Fluorescence intensity was 45.04 in the test on 293T cells (2 nM); 32.41 in the test on 293T cells (5 nM); 21.85 in the test with 293T cells (10 nM); 17.28 in the test on 293T cells (50 nM); 11.89 in the test with 293T cells (100 nM); 152.11 in the test on 293T cells (1 uM). For the same compound, the Fluorescence intensity was 103.58 in the test with 293T cells (10 uM), 18.48 in the test with 293T cells (50 uM) and 13.34 ± 3.24 with 293T cells (100 uM).
As to `CCCCCCCCCCCCCCCC(=O)OCC1OC(O)C(O)C(O)C1O` (centres unmarked) [Glucose-C16], the Fluorescence intensity with 293T cells (2 nM) turned out to be 134.65 ± 15.22; in the test with 293T cells (5 nM), 114.00 ± 11.02; in the test on 293T cells (10 nM), 94.34 ± 4.57; in the test with 293T cells (50 nM), 96.63 ± 6.54; with 293T cells (100 nM), 172.88 ± 26.33; in the test on 293T cells (1 uM) it was 198.54 ± 8.55. The Fluorescence intensity came out at 170.16 ± 20.33 in the test with 293T cells (10 uM), 110.15 ± 10.22 with 293T cells (50 uM) and 104.90 ± 4.91 with 293T cells (100 uM).
Turning to `O=C(O)CCCCCCCCCC(=O)OCC(O)C1OC(=O)C(O)=C1O` (centres unmarked) [VC-undecanedioic acid], the Fluorescence intensity in the test on 293T cells (2 nM) came out at 121.02; with 293T cells (5 nM), 92.26; with 293T cells (10 nM), 78.76 ± 7.89; in the test with 293T cells (50 nM) it was 87.57 ± 5.57; in the test on 293T cells (100 nM), 96.31 ± 6.21; in the test on 293T cells (1 uM), 199.22 ± 19.26. Moreover, the Fluorescence intensity with 293T cells (10 uM) is recorded as 217.49 ± 14.22; in the test on 293T cells (50 uM), 106.96 ± 5.64; in the test on 293T cells (100 uM), 110.44 ± 9.87.
With `CCCCCCCC/C=C\CCCCCCCC(=O)O.OCCO` [Ethylene glycol-oleic acid], the Fluorescence intensity in the test with 293T cells (2 nM) was 182.21 ± 18.23; in the test with 293T cells (5 nM), 121.07 ± 11.26; with 293T cells (10 nM), 69.12 ± 4.26; in the test with 293T cells (50 nM), 64.90 ± 1.56; in the test on 293T cells (100 nM), 44.23 ± 4.26; with 293T cells (1 uM), 368.97 ± 18.56. Also, the Fluorescence intensity with 293T cells (50 uM) amounted to 69.34 ± 5.32; with 293T cells (100 uM), 58.72 ± 8.75.
Regarding `CCCCCCCCC=CCCCCCCCC(=O)OCC(O)C1OC(=O)C(O)=C1O` (centres unmarked) [Vc-oleic acid], the “Fluorescence recovery rate %” value with Hela cells (2 nM, 20 s) is reported as 61.48%; in the test with Hela cells (2 nM, 40 s), 62.33%; in the test on Hela cells (2 nM, 60 s), 63.41%; in the test with Hela cells (2 nM, 80 s), 64.57%; in the test with Hela cells (5 nM, 20 s) it was 61.87%; in the test on Hela cells (5 nM, 40 s), 62.99%. The “Fluorescence recovery rate %” value is 63.47% in the test with Hela cells (5 nM, 60 s); 63.21% in the test on Hela cells (5 nM, 80 s); 63.72% in the test on Hela cells (10 nM, 20 s); 63.75% in the test with Hela cells (10 nM, 40 s); 64.67% in the test with Hela cells (10 nM, 60 s); 65.92% in the test on Hela cells (10 nM, 80 s). The “Fluorescence recovery rate %” value with Hela cells (50 nM, 20 s) worked out at 62.43%; in the test with Hela cells (50 nM, 40 s), 62.62%; with Hela cells (50 nM, 60 s) it was 63.37%; in the test on Hela cells (50 nM, 80 s), 64.24%; in the test on Hela cells (50 μM, 20 s) it was 62.54%; with Hela cells (50 μM, 40 s) it was 67.11%. Besides, the “Fluorescence recovery rate %” value in the test with Hela cells (50 μM, 60 s) is reported as 74.55%; in the test with Hela cells (50 μM, 80 s), 76.57%; in the test on Hela cells (100 μM, 20 s) it was 61.66%; with Hela cells (100 μM, 40 s), 73.65%; in the test with Hela cells (100 μM, 60 s) it was 77.32%; in the test with Hela cells (100 μM, 80 s), 78.61%.
Consider adenosine monophosphate-linoleic acid, for which the “Fluorescence recovery rate %” value in the test with Hela cells (2 nM, 20 s) is given as 62.11%; in the test with Hela cells (2 nM, 40 s) it was 62.98%; in the test with Hela cells (2 nM, 60 s), 64.26%; with Hela cells (2 nM, 80 s), 68.17%; with Hela cells (5 nM, 20 s), 63.44%; in the test on Hela cells (5 nM, 40 s), 64.22%. Moreover, the “Fluorescence recovery rate %” value with Hela cells (5 nM, 60 s) worked out at 65.78%; with Hela cells (5 nM, 80 s), 66.39%; in the test with Hela cells (10 nM, 20 s) it was 63.22%; with Hela cells (10 nM, 40 s), 63.48%; with Hela cells (10 nM, 60 s), 64.42%; in the test on Hela cells (10 nM, 80 s), 65.93%. Besides, the “Fluorescence recovery rate %” value stood at 64.25% in the test with Hela cells (50 nM, 20 s); 64.66% with Hela cells (50 nM, 40 s); 65.33% in the test with Hela cells (50 nM, 60 s); 66.23% in the test on Hela cells (50 nM, 80 s); 64.44% in the test on Hela cells (50 μM, 20 s); 70.73% with Hela cells (50 μM, 40 s). The “Fluorescence recovery rate %” value worked out at 74.64% in the test on Hela cells (50 μM, 60 s); 80.57% in the test with Hela cells (50 μM, 80 s); 63.22% in the test with Hela cells (100 μM, 20 s); 67.48% in the test with Hela cells (100 μM, 40 s); 75.42% with Hela cells (100 μM, 60 s); 79.93% with Hela cells (100 μM, 80 s).
Take `CCCCCCCCCCCCCCCCCCCCCCCC(=O)OC(C)C(N)C(=O)O` (centres unmarked) [Threonine-C24]: the Fluorescence intensity in the test with 293T cells (2 nM) was found to be 39.09 ± 7.89; in the test with 293T cells (5 nM) it was 38.29 ± 5.26; in the test on 293T cells (10 nM), 22.90 ± 1.22; with 293T cells (50 nM) it was 12.84 ± 2.22; with 293T cells (100 nM), 14.81 ± 1.33; in the test with 293T cells (1 uM), 435.55 ± 15.26. The Fluorescence intensity with 293T cells (10 uM) is listed as 416.78 ± 12.33; in the test on 293T cells (50 uM), 46.51 ± 5.21; with 293T cells (100 uM), 30.64 ± 5.55.

The values are drawn from patent US20260166162A1, “CARBON CHAIN SUBSTANCE FOR REGULATING TRANSMEMBRANE TRANSPORT AND FLUIDITY OF CELL MEMBRANES, AND PREPARATION AND USE THEREOF” (priority 2022, published 2026).
